Measured values published in patent US12398154B2, “Azaquinazoline pan-KRas inhibitors” (Mirati Therapeutics, Inc., priority 2020, dated 2025).

Columns and labels:
KRas WT = KRas WT (Homo sapiens, UniProt P01116); assay: biochemical;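 further: binding to KRas read as TR-FRET displacement after a one-hour room-temperature incubation, IC50 derived from percent-of-control values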
Method: (§1) The ability of a compound to bind to KRas was measured using a TR-FRET displacement assay. […] After a 60-minute incubation at room temperature, the reaction was measured using a BMG LABTECH CLARIO star Plus via TR-FRET. […] The POC values were fit to a 4-parameter IC50 equation and the IC50 value reported.

KRas G12C = KRas G12C (Homo sapiens, UniProt P01116, G12C); assay: biochemical;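 further: binding to KRas assessed by TR-FRET displacement after one hour incubation at room temperature, potency fitted from percent-of-control values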
KRas G12C, sequence (P01116 1-169 isoform P01116-2 G12C): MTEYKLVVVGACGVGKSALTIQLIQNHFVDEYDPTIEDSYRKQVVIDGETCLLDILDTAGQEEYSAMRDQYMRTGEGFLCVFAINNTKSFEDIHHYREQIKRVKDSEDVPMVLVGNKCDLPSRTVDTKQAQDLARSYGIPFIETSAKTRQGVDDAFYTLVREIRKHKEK
Method: as §1

KRas G12D = KRas G12D (Homo sapiens, UniProt P01116, G12D); assay: biochemical;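 further: TR-FRET displacement binding assay on KRas, read after a one-hour incubation at room temperature, IC50 fitted from percent-of-control values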
KRas G12D, sequence (P01116 1-169 isoform P01116-2 G12D): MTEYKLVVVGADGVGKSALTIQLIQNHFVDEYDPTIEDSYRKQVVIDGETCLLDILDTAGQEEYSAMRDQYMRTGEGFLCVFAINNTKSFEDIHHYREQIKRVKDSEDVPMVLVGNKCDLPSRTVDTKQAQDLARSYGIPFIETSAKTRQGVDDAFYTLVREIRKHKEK
Method: as §1

KRas G12V = KRas G12V (Homo sapiens, UniProt P01116, G12V); assay: biochemical;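 further: KRas binding measured by TR-FRET displacement at room temperature, IC50 fitted from percent of control values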
KRas G12V, sequence (P01116 1-169 isoform P01116-2 G12V): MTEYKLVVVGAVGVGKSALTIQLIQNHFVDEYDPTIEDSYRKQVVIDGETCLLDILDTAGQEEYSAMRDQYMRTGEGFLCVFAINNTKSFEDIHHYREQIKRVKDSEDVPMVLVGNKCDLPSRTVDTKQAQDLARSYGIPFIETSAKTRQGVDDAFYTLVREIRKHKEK
Method: as §1

KRas G12R = KRas G12R (Homo sapiens, UniProt P01116, G12R); assay: biochemical;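 further: TR-FRET displacement assay of compound binding to KRas, read after one hour at room temperature, potency from a four-parameter fit of percent-of-control values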
KRas G12R, sequence (P01116 1-169 isoform P01116-2 G12R): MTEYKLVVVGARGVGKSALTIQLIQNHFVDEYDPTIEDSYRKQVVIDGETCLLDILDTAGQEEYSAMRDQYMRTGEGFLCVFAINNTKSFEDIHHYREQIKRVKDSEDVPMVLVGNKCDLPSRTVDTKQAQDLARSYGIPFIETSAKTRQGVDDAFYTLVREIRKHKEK
Method: as §1

KRas G12S = KRas G12S (Homo sapiens, UniProt P01116, G12S); assay: biochemical;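 further: TR-FRET displacement binding to KRas, read after one hour incubation at room temperature, IC50 from four-parameter fit of percent of control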
KRas G12S, sequence (P01116 1-169 isoform P01116-2 G12S): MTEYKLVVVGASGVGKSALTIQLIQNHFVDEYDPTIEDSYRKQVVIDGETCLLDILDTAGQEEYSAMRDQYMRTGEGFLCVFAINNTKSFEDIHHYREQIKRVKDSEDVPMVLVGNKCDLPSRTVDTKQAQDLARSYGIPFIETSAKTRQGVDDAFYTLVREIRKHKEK
Method: as §1

KRas Q61H = molecular target: T1, KRas Q61H (Homo sapiens, UniProt P01116, Q61H); assay: KRas binding assay (TR-FRET displacement);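 further: TR-FRET signal read after one hour at room temperature, IC50 derived by four-parameter fitting of percent-of-control values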
T1 construct: Biotinylated KRas (corresponding to amino acids 1-169, produced at Accelegan Inc.); biotin (biotinylated); purchased Accelegan Inc
T1 sequence (P01116 1-169 isoform P01116-2 Q61H): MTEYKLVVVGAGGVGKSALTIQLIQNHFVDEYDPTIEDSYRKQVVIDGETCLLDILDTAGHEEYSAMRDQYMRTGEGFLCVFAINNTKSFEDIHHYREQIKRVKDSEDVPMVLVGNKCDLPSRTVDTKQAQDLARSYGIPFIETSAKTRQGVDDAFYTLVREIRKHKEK
Method: as §1

KRas G13D = molecular target: T2, KRas G13D (Homo sapiens, UniProt P01116, G13D); assay: KRas binding assay (TR-FRET displacement);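 further: One-hour room temperature incubation before TR-FRET reading, IC50 from a four-parameter curve fit to percent-of-control data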
T2 construct: Biotinylated KRas (corresponding to amino acids 1-169, produced at Accelegan Inc.); biotin (biotinylated); purchased Accelegan Inc
T2 sequence (P01116 1-169 isoform P01116-2 G13D): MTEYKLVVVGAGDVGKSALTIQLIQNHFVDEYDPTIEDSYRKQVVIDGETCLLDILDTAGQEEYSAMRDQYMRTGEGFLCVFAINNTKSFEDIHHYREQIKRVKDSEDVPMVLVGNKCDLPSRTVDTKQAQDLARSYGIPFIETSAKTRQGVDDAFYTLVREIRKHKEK
Method: as §1

KRas G12A = KRas G12A (Homo sapiens, UniProt P01116, G12A); assay: biochemical;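 further: binding to KRas measured by TR-FRET displacement after one hour at room temperature, IC50 from a four-parameter fit of percent-of-control values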
KRas G12A, sequence (P01116 1-169 isoform P01116-2 G12A): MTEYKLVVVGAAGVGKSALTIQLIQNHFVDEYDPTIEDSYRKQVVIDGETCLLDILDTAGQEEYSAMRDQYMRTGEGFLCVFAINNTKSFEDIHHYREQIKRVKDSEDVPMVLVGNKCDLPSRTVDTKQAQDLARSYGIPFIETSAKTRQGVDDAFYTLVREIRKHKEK
Method: as §1

KRas WT, sequence (P01116 1-169 isoform P01116-2): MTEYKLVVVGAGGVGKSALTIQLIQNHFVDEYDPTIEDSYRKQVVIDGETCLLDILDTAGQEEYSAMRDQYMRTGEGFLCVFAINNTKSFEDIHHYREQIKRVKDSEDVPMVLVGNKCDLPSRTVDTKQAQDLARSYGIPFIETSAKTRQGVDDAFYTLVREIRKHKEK

SMILES	IC50 (KRas WT) [µM]	IC50 (KRas G12C) [µM]	IC50 (KRas G12D) [µM]	IC50 (KRas G12V) [µM]	IC50 (KRas G12R) [µM]	IC50 (KRas G12S) [µM]	IC50 (KRas Q61H) [nM]	IC50 (KRas G13D) [nM]	IC50 (KRas G12A) [µM]
Fc1c(-c2cccc3cccc(F)c23)ncc2c(NCCc3c[nH]nn3)nc(OCC34CCCN3CCC4)nc12 [Example 115, N-(2-(1H-1,2,3-triazol-4-yl)ethyl)-8-fluoro-7-(8-fluoronaphthalen-1-yl)-2-((tetrahydro-1H-pyrrolizin-7a(5H)-yl)methoxy)pyrido[4,3-d]pyrimidin-4-amine]	11.6	6.56	30.9	5.8	4.64	10.9	22300	21200	10.5
Fc1c(-c2cccc3cccc(F)c23)ncc2c(NCCCn3ccnn3)nc(OCC34CCCN3CCC4)nc12 [Example 118, N-(3-(1H-1,2,3-triazol-1-yl)propyl)-8-fluoro-7-(8-fluoronaphthalen-1-yl)-2-((tetrahydro-1H-pyrrolizin-7a(5H)-yl)methoxy)pyrido[4,3-d]pyrimidin-4-amine]	8.55	7.45	16.1	7.53	11.3	6.24	14000	8810	8.14
Fc1c(-c2cccc3cccc(F)c23)ncc2c(NCCCn3cnnn3)nc(OCC34CCCN3CCC4)nc12 [Example 119, N-(3-(1H-tetrazol-1-yl)propyl)-8-fluoro-7-(8-fluoronaphthalen-1-yl)-2-((tetrahydro-1H-pyrrolizin-7a(5H)-yl)methoxy)pyrido[4,3-d]pyrimidin-4-amine]	15.7	11.6	31.9	18	15.6	14.6	27600	17200	14.4
Fc1c(-c2cccc3cccc(F)c23)ncc2c(NCc3nnc4ncccn34)nc(OCC34CCCN3CCC4)nc12 [Example 121, N-([1,2,4]triazolo[4,3-a]pyrimidin 3 ylmethyl) 8-fluoro-7-(8-fluoronaphthalen-1-yl)-2-((tetrahydro-1H-pyrrolizin-7a(5H)-yl)methoxy)pyrido[4,3-d]pyrimidin-4-amine]	13	9.1	42.8	6.64	12.3	18.6	25400	17300	15.5
Fc1c(-c2cccc3cccc(F)c23)ncc2c(NCc3nnc4cccnn34)nc(OCC34CCCN3CCC4)nc12 [Example 122, N-([1,2,4]triazolo[4,3-b]pyridazin-3-ylmethyl)-8-fluoro-7-(8-fluoronaphthalen-1-yl)-2-((tetrahydro-1H-pyrrolizin-7a(5H)-yl)methoxy)pyrido[4,3-d]pyrimidin-4-amine]	26	3.47	≥ 100	6.91	12.4	21.7	88200	86400	14.4
Fc1c(-c2cccc3cccc(F)c23)ncc2c(NCCCc3cccnc3)nc(OCC34CCCN3CCC4)nc12 [Example 124, 8-fluoro-7-(8-fluoronaphthalen-1-yl)-N-(3-(pyridin-3-yl)propyl)-2-((tetrahydro-1H-pyrrolizin-7a(5H)-yl)methoxy)pyrido[4,3-d]pyrimidin-4-amine]	7.02	1.48	12.6	1.51	2.19	3.87	7140	7820	2.07
Fc1c(-c2cccc3cccc(F)c23)ncc2c(NCc3ccc4nonc4c3)nc(OCC34CCCN3CCC4)nc12 [Example 125, N-(benzo[c][1,2,5]oxadiazol-5-ylmethyl)-8-fluoro-7-(8-fluoronaphthalen-1-yl)-2-((tetrahydro-1H-pyrrolizin-7a(5H)-yl)methoxy)pyrido[4,3-d]pyrimidin-4-amine]	13.3	4.25	60.4	3.92	4.39	7.42	39000	29100	5.52
O=S1(=O)CC(CNc2nc(OCC34CCCN3CCC4)nc3c(F)c(-c4cccc5cccc(F)c45)ncc23)C1 [Example 127, 3-(((8-fluoro-7-(8-fluoronaphthalen-1-yl)-2-((tetrahydro-1H-pyrrolizin-7a(5H)-yl)methoxy)pyrido[4,3-d]pyrimidin-4-yl)amino)methyl)thietane 1,1-dioxide]	4.22	2.19	25.1	1.7	2.58	1.72	11100	8700	2.68

Continued, values first:

IC50 (KRas WT) [µM]	IC50 (KRas G12C) [µM]	IC50 (KRas G12D) [µM]	IC50 (KRas G12V) [µM]	IC50 (KRas G12R) [µM]	IC50 (KRas G12S) [µM]	IC50 (KRas Q61H) [nM]	IC50 (KRas G13D) [nM]	IC50 (KRas G12A) [µM]	SMILES
2.71	2.48	4.38	2.86	3.75	2.81	43300	29900	2.64	Fc1c(-c2cccc3cccc(F)c23)ncc2c(N3CCCC4(CC4)C3)nc(OCC34CCCN3CCC4)nc12 [Example 114, 8-fluoro-7-(8-fluoronaphthalen-1-yl)-4-(5-azaspiro[2.5]octan-5-yl)-2-((tetrahydro-1H-pyrrolizin-7a(5H)-yl)methoxy)pyrido[4,3-d]pyrimidine]
3.45	4.41	3.31	4.09	6.27	3.59	5200	2700	2.74	CC1CC(O)CCN(c2nc(OCC34CCCN3CCC4)nc3c(F)c(-c4cccc5cccc(F)c45)ncc23)C1 (stereo not drawn) [Example 116, 1-(8-fluoro-7-(8-fluoronaphthalen-1-yl)-2-((tetrahydro-1H-pyrrolizin-7a(5H)-yl)methoxy)pyrido[4,3-d]pyrimidin-4-yl)-6-methylazepan-4-ol]
9.86	6.57	32	11.1	10.1	11	8240	5680	9.15	OCC1CN(c2nc(OCC34CCCN3CCC4)nc3c(F)c(-c4cccc5cccc(F)c45)ncc23)CCC1O (stereo not drawn) [Example 117, 1-(8-fluoro-7-(8-fluoronaphthalen-1-yl)-2-((tetrahydro-1H-pyrrolizin-7a(5H)-yl)methoxy)pyrido[4,3-d]pyrimidin-4-yl)-3-(hydroxymethyl)piperidin-4-ol]
34.1	19.8	≥ 100	≥ 100	≥ 100	85.3	≥ 100000	≥ 100000	33.3	Oc1cccc2c1CN(c1nc(OCC34CCCN3CCC4)nc3c(F)c(-c4cccc5cccc(F)c45)ncc13)C2 [Example 120, 2-(8-fluoro-7-(8-fluoronaphthalen-1-yl)-2-((tetrahydro-1H-pyrrolizin-7a(5H)-yl)methoxy)pyrido[4,3-d]pyrimidin-4-yl)isoindolin-4-ol]
3.5	2.34	4.44	3.19	7.5	2.76	4980	3480	3.18	Fc1c(-c2cccc3cccc(F)c23)ncc2c(N3CC=CCC3)nc(OCC34CCCN3CCC4)nc12 [Example 123, 4-(3,6-dihydropyridin-1 (2H)-yl)-8-fluoro-7-(8-fluoronaphthalen-1-yl)-2-((tetrahydro-1H-pyrrolizin-7a(5H)-yl)methoxy)pyrido[4,3-d]pyrimidine]
5.97	9.29	67.3	≥ 100	18.4	3.97	7500	7290	13.8	Nc1cc2n(n1)CCN(c1nc(OCC34CCCN3CCC4)nc3c(F)c(-c4cccc5cccc(F)c45)ncc13)C2 [Example 126, 5-(8-fluoro-7-(8-fluoronaphthalen-1-yl)-2-((tetrahydro-1H-pyrrolizin-7a(5H)-yl)methoxy)pyrido[4,3-d]pyrimidin-4-yl)-4,5,6,7-tetrahydropyrazolo[1,5-a]pyrazin-2-amine]
12.8	9.57	49	8.79	4.14	7.8	18400	13400	11.5	O=S1(=O)CC[C@H](CNc2nc(OCC34CCCN3CCC4)nc3c(F)c(-c4cccc5cccc(F)c45)ncc23)N1 [Example 128, (R)-3-(((8-fluoro-7-(8-fluoronaphthalen-1-yl)-2-((tetrahydro-1H-pyrrolizin-7a(5H)-yl)methoxy)pyrido[4,3-d]pyrimidin-4-yl)amino)methyl)isothiazolidine 1,1-dioxide]
3.11	2.53	2.26	2.79	4.43	2.79	4360	2500	2.69	OC1CCCN(c2nc(OCC34CCCN3CCC4)nc3c(F)c(-c4cccc5cccc(F)c45)ncc23)CC1 (stereo not drawn) [Example 129, 1-(8-fluoro-7-(8-fluoronaphthalen-1-yl)-2-((tetrahydro-1H-pyrrolizin-7a(5H)-yl)methoxy)pyrido[4,3-d]pyrimidin-4-yl)azepan-4-ol]
